Our source for the IC50 values is patent US11866430B2, “Naphthyridinone compounds useful as T cell activators” (priority 2018, dated 2024).

pIC50: −log10 of the molar value. Where only a bound is given, the exact number is not on record here.

What is called pIC50 is −log10 of the IC50, conventionally taken in molar units.

Assay [1] deals with T1, human DGKα (Homo sapiens (Human), UniProt P23743). Nature of the assay: biochemical. The conditions noted are these: detergent/lipid micelle substrate; read-out: DGKα IC50. The method, boiled down:
(§1)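 Full-length human DGKα or DGKζ (C-terminal His tag, Sf9-expressed; 20 nM 4× stock) was preincubated 10 min at room temperature with PS/DAG octyl glucoside micelles in MOPS pH 7.5 buffer with MgCl2, CaCl2 and DTT. It was then started with ATP (300 uM addition) and run for 1 hr, with ADP-Glo luminescence read-out.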

Assay [2] deals with T2, human DGKζ (Homo sapiens (Human), UniProt Q13574). Nature of the assay: DGKζ LIPGLO assay (extruded liposome substrate). The class given is biochemical. The conditions noted are these: extruded liposome substrate; read-out: DGKζ LIPGLO IC50. An outline of the steps:
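Sf9-derived DGKζ was premixed 10 min with PC/DAG/PS liposomes (100 nm extruded) in MOPS pH 7.5 buffer containing NaCl, MgCl2, CaCl2 and DTT.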

The target in assay [3] is T1, human DGKα. Nature of the assay: DGKα LIPGLO assay (extruded liposome substrate). Format: biochemical. An outline of the steps:
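Human full-length DGKα, His-tagged and produced in Sf9 cells, assayed at 20 nM (4× stock) on extruded liposomes of PS, 0.25 mM DAG and 2.75 mM PC, preincubated 10 min. Reaction started with 300 μM ATP (stock) and ran 1 h in MOPS pH 7.5/MgCl2/CaCl2/DTT buffer.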

Assay [4] has as its system pre-activated CD4 T cells and Raji cells. Nature of the assay: Raji CD4 T Cell IL2 Assay. The class given is cell-based. The conditions noted are these: Homo sapiens, Raji.
The target in assay [5] is T2, human DGKζ. The experiment in a line: DGKζ assay (detergent/lipid micelle substrate). The conditions noted are these: detergent/lipid micelle substrate; read-out: DGKζ IC50. The class given is biochemical. An outline of the steps: as §1

T2 sequence (Q13574 other isoform, or with tags, fused parts or gaps): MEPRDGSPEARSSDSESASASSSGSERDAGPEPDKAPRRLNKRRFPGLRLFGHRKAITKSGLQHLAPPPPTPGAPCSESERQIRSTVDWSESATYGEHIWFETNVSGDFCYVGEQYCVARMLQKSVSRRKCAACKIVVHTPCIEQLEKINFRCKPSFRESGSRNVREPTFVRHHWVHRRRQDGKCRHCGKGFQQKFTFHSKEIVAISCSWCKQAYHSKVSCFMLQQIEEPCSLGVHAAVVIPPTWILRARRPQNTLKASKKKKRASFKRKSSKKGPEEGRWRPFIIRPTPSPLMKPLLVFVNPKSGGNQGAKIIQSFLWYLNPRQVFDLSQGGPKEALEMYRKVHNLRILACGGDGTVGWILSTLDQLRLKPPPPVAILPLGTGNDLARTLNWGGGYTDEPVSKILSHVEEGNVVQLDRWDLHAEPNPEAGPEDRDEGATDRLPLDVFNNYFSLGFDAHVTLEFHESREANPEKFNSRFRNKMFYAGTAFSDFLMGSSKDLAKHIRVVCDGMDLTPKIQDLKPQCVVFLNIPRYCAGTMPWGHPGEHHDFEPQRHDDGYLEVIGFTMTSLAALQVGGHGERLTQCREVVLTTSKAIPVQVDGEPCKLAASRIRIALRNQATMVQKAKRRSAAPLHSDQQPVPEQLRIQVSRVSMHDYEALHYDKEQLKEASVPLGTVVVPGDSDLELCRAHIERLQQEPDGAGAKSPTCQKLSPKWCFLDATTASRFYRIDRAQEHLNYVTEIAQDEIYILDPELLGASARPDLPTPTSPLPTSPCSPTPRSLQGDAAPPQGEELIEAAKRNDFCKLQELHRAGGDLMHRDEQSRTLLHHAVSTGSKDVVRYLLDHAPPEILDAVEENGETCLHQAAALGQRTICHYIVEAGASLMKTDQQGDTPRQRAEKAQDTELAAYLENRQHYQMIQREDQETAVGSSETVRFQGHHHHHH
T1 sequence (P23743 other isoform, or with tags, fused parts or gaps): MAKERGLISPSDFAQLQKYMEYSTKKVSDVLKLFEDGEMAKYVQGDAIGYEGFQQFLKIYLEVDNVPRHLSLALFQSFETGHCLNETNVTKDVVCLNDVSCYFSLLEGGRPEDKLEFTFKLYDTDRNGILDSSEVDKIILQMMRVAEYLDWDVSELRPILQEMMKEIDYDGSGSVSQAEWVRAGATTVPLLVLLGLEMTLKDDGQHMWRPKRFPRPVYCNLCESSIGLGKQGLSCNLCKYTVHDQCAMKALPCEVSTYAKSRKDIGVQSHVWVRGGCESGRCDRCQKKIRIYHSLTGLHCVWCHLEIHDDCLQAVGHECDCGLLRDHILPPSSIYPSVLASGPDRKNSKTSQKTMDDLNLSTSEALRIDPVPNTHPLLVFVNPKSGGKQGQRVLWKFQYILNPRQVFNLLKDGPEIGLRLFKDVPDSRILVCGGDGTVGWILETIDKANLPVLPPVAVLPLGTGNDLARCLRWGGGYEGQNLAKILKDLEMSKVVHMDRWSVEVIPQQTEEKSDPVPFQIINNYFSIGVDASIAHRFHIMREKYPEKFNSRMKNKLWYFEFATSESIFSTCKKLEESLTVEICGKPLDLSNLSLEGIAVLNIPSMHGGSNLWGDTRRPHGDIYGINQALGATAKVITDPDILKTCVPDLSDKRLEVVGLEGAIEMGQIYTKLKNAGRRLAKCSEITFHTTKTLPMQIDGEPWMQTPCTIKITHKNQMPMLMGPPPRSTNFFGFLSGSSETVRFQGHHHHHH

Regarding `CCC(c1ccc(F)cc1)N1CCN(c2c(C#N)c(=O)n(CC#N)c3ccc(Br)nc23)CC1` (centres unmarked) [Example 155, 6-bromo-1-(cyanomethyl)-4-(4-(1-(4-fluorophenyl)propyl)piperazin-1-yl)-2-oxo-1,2-dihydro-1,5-naphthyridine-3-carbonitrile], the pIC50 on human DGKα [1] was 4.62; at human DGKζ [2], 4.20; against human DGKα [3], 4.15; in assay [4] it was 5.80; at human DGKζ [5] it was 3.64.

As to `N#CCCCn1c(=O)c([N+](=O)[O-])c(N2CCN(C(c3ccccc3)c3ccccc3)CC2)c2ncccc21` [Example 183, 4-(4-(4-benzhydrylpiperazin-1-yl)-3-nitro-2-oxo-1,5-naphthyridin-1(2H)-yl)butanenitrile], the pIC50 on human DGKα [1] was 4.28; at human DGKζ [2] it was 4.68; on human DGKα [3], under 3.62; in assay [4] it was 5.49; at human DGKζ [5] it was under 3.62.

For the molecule `Cn1c(=O)c(C#N)c(N2CCN(Cc3ccc(F)cc3O)CC2)c2nc(Br)ccc21` [Example 192, 6-bromo-4-(4-(4-fluoro-2-hydroxybenzyl)piperazin-1-yl)-1-methyl-2-oxo-1,2-dihydro-1,5-naphthyridine-3-carbonitrile], the pIC50 was 7.08 on human DGKα [1]; 5.09 at human DGKζ [2]; 7.32 against human DGKα [3]; 6.70 in assay [4]; under 3.62 on human DGKζ [5].

On to `Cn1c(=O)c(C#N)c(N2CCN(Cc3ccc(F)cc3O)CC2)c2nc(Cl)ccc21` [Example 193, 6-chloro-4-(4-(4-fluoro-2-hydroxybenzyl)piperazin-1-yl)-1-methyl-2-oxo-1,2-dihydro-1,5-naphthyridine-3-carbonitrile], for which the pIC50 at human DGKα [1] was 6.66; at human DGKζ [2] it was 5.19; against human DGKα [3], 7.05; in assay [4], 6.89; on human DGKζ [5] it was under 3.62.

Regarding `Cc1ccc2c(n1)c(N1CCN(Cc3ccc(F)cc3O)CC1)c(C#N)c(=O)n2C` [Example 194, 4-(4-(4-fluoro-2-hydroxybenzyl)piperazin-1-yl)-1,6-dimethyl-2-oxo-1,2-dihydro-1,5-naphthyridine-3-carbonitrile], the pIC50 on human DGKα [1] was 7.12; at human DGKζ [2], 5.08; against human DGKα [3], 6.74; in assay [4], 6.36; on human DGKζ [5], 4.21.

With `C=CCOc1cc(F)ccc1C(C)N1CCN(c2c(C#N)c(=O)n(C)c3ccc(Cl)nc23)CC1` (centres unmarked) [Example 195, 4-(4-(1-(2-(allyloxy)-4-fluorophenyl)ethyl)piperazin-1-yl)-6-chloro-1-methyl-2-oxo-1,2-dihydro-1,5-naphthyridine-3-carbonitrile], the pIC50 is 6.66 at human DGKα [1]; 4.01 on human DGKζ [2]; 5.77 at human DGKα [3]; 6.92 in assay [4]; under 3.62 on human DGKζ [5].

For the molecule `Cn1c(=O)c(C#N)c(N2CCN(C(c3ccccc3)c3ccccc3)CC2)c2ncccc21` [Example 196, 4-(4-benzhydrylpiperazin-1-yl)-1-methyl-2-oxo-1,2-dihydro-1,5-naphthyridine-3-carbonitrile], the pIC50 at human DGKα [1] is 5.40; at human DGKζ [2] it was 4.37; against human DGKα [3] it was 5.57; in assay [4], 5.68; on human DGKζ [5], under 3.62.

Regarding `Cn1c(=O)c(C#N)c(N2CCN(Cc3cccc4c3NCC4)CC2)c2nc(Cl)ccc21` [Example 216, 6-chloro-4-(4-(indolin-7-ylmethyl)piperazin-1-yl)-1-methyl-2-oxo-1,2-dihydro-1,5-naphthyridine-3-carbonitrile], the pIC50 at human DGKα [1] is 5.85; at human DGKζ [2], 5.32; against human DGKα [3], 5.92; in assay [4], 7.19; at human DGKζ [5], 4.27.

Regarding `Cn1c(=O)c(C#N)c(N2CCN(C(c3ccc(F)cc3)c3ccc(F)cc3)CC2)c2nc(C#N)ccc21` [Example 217, 8-(4-(bis(4-fluorophenyl)methyl)piperazin-1-yl)-5-methy-6-oxo-5,6-dihydro-1,5-naphthyridine-2,7-dicarbonitrile], the negative logarithm of the IC50 (pIC50) on human DGKα [1] was 5.64; at human DGKζ [2], 5.85; on human DGKα [3], 5.89; in assay [4], 7.17; on human DGKζ [5], 5.35.

On to `Cn1c(=O)c(C#N)c(N2CCN(C(c3ccc(F)cc3)c3ccc(F)cc3)CC2)c2nc(Cl)ccc21` [Example 218, 4-(4-(bis(4-fluorophenyl)methyl)piperazin-1-yl)-6-chloro-1-methyl-2-oxo-1,2-dihydro-1,5-naphthyridine-3-carbonitrile], for which the pIC50 was 6.16 on human DGKα [1]; 5.29 on human DGKζ [2]; 5.82 at human DGKα [3]; 7.03 in assay [4]; under 4.09 at human DGKζ [5].

On to `Cn1c(=O)c(C#N)c(N2CCN(Cc3cccc4ccccc34)CC2)c2nc(Cl)ccc21` [Example 221, 6-chloro-1-methyl-4-(4-(naphthalen-1-ylmethyl)piperazin-1-yl)-2-oxo-1,2-dihydro-1,5-naphthyridine-3-carbonitrile], for which the pIC50 on human DGKα [1] is 6.13; on human DGKζ [2], 4.74; on human DGKα [3] it was 5.47; in assay [4], 6.48; at human DGKζ [5] it was under 3.62.

For the molecule `Cn1c(=O)c([N+](=O)[O-])c(N2CCN(C(c3ccccc3)c3ccccc3)CC2)c2nc(C#N)ccc21` [Example 223, 8-(4-benzhydrylpiperazin-1-yl)-5-methyl-7-nitro-6-oxo-5,6-dihydro-1,5-naphthyridine-2-carbonitrile], the pIC50 was 5.72 on human DGKα [1]; 6.21 at human DGKζ [2]; 5.00 on human DGKα [3]; 7.38 in assay [4]; 5.49 at human DGKζ [5].

With `CCn1ccc2c(CN3CCN(c4c(C#N)c(=O)n(C)c5ccc(Br)nc45)CC3)cccc21` [Example 225, 6-bromo-4-(4-((1-ethyl-1H-indol-4-yl)methyl)piperazin-1-yl)-1-methyl-2-oxo-1,2-dihydro-1,5-naphthyridine-3-carbonitrile], the pIC50 on human DGKα [1] is 6.41; on human DGKζ [2], 5.89; against human DGKα [3], 6.09; in assay [4], 7.15; at human DGKζ [5], 4.85.

For the molecule `Cc1ccc2c(n1)c(N1CCN(C(c3ccc(F)cc3)c3ccc(F)cc3)CC1)c(C#N)c(=O)n2C` [Example 226, 4-(4-(bis(4-fluorophenyl)methyl)piperazin-1-yl)-1,6-dimethyl-2-oxo-1,2-dihydro-1,5-naphthyridine-3-carbonitrile], the pIC50 at human DGKα [1] was 5.80; at human DGKζ [2], 5.00; against human DGKα [3], 5.41; in assay [4] it was 7.08; on human DGKζ [5], 4.15.

`Cn1c(=O)c(C(=O)C(F)(F)F)c(N2CCN(C(c3ccc(F)cc3)c3ccc(F)cc3)CC2)c2ncccc21` [Example 227, 4-(4-(bis(4-fluorophenyl)methyl)piperazin-1-yl)-1-methyl-3-(2,2,2-trifluoroacetyl)-1,5-naphthyridin-2(1H)-one]: the pIC50 on human DGKα [1] is under 3.62; at human DGKζ [2], 4.96; against human DGKα [3], 3.64; in assay [4], 5.82; on human DGKζ [5], under 3.62.

Regarding `C#CCn1c(=O)c(C#N)c(N2CCN(C(c3ccc(F)cc3)c3ccc(F)cc3)CC2)c2nc(Br)ccc21` [Example 229, 4-(4-(bis(4-fluorophenyl)methyl)piperazin-1-yl)-6-bromo-2-oxo-1-(prop-2-yn-1-yl)-1,2-dihydro-1,5-naphthyridine-3-carbonitrile], the pIC50 at human DGKα [1] was 4.85; on human DGKζ [2], 4.96; on human DGKα [3] it was under 3.62; in assay [4], 6.92; on human DGKζ [5] it was 4.85.

Take `Cc1ccc2c(n1)c(N1CCN(C(c3ccc(F)cc3)c3ccc(F)cc3)CC1)c(Cl)c(=O)n2C` [Example 233, 4-(4-(bis(4-fluorophenyl)methyl)piperazin-1-yl)-3-chloro-1,6-dimethyl-1,5-naphthyridin-2(1H)-one]: the pIC50 at human DGKα [1] is 5.08; at human DGKζ [2], 5.18; on human DGKα [3], 5.52; in assay [4] it was 6.32; on human DGKζ [5], under 3.62.

As to `Cc1ccc2c(n1)c(N1CCN(C(c3ccc(F)cc3)c3ccc(F)cc3)CC1)c(Br)c(=O)n2C` [Example 239, 4-(4-(bis(4-fluorophenyl)methyl)piperazin-1-yl)-3-bromo-1,6-dimethyl-1,5-naphthyridin-2(1H)-one], the pIC50 on human DGKα [1] is 4.96; on human DGKζ [2], 4.29; at human DGKα [3] it was 5.00; in assay [4], 5.44; at human DGKζ [5] it was under 3.62.

As to `Cn1c(=O)c(C#N)c(N2CCN(Cc3c(O)cccc3Br)CC2)c2nc(Cl)ccc21` [Example 258, 4-{4-[(2-bromo-6-hydroxyphenyl)methyl]piperazin-1-yl}-6-chloro-1-methyl-2-oxo-1,2-dihydro-1,5-naphthyridine-3-carbonitrile], the pIC50 at human DGKα [1] is 6.37; on human DGKζ [2], 5.28; at human DGKα [3] it was 5.80; in assay [4] it was 8.28; on human DGKζ [5], 4.59.
